Results as given in PubChem BioAssay (NCI).
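Where inhibition never reached the appropriate level, the endpoint shown equals the highest concentration tested. Otherwise, values were interpolated linearly from a five-concentration, 48-hour dose response in 96-well plates. At the TGI there is no net growth.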

Experiments:
Assay in all cases: NCI anticancer screen, dose series, 48 h
786-0 renal = system: 786-0 renal
A498 renal = system: A498 renal
A549 NSCLC = system: A549 NSCLC
ACHN renal = system: ACHN renal
BT-549 breast = system: BT-549 breast
CAKI-1 renal = system: CAKI-1 renal
CCRF-CEM leukemia = system: CCRF-CEM leukemia
COLO 205 colon = system: COLO 205 colon
DU-145 prostate = system: DU-145 prostate
EKVX NSCLC = system: EKVX NSCLC
HCC-2998 colon = system: HCC-2998 colon
HCT-116 colon = system: HCT-116 colon
HCT-15 colon = system: HCT-15 colon
HL-60(TB) leukemia = system: HL-60(TB) leukemia
HOP-62 NSCLC = system: HOP-62 NSCLC
HOP-92 NSCLC = system: HOP-92 NSCLC
HS 578T breast = system: HS 578T breast
HT29 colon = system: HT29 colon
IGROV1 ovarian = system: IGROV1 ovarian
K-562 leukemia = system: K-562 leukemia
KM12 colon = system: KM12 colon
LOX IMVI melanoma = system: LOX IMVI melanoma
M14 melanoma = system: M14 melanoma
MALME-3M melanoma = system: MALME-3M melanoma
MCF7 breast = system: MCF7 breast
MDA-MB-231 breast = system: MDA-MB-231 breast
MDA-MB-435 = system: MDA-MB-435
MDA-N = system: MDA-N
MOLT-4 leukemia = system: MOLT-4 leukemia
NCI-H226 lung = system: NCI-H226 lung
NCI-H23 lung = system: NCI-H23 lung
NCI-H460 lung = system: NCI-H460 lung
NCI-H522 lung = system: NCI-H522 lung
NCI/ADR-RES ovarian = system: NCI/ADR-RES ovarian
OVCAR-3 ovarian = system: OVCAR-3 ovarian
OVCAR-4 ovarian = system: OVCAR-4 ovarian
OVCAR-5 ovarian = system: OVCAR-5 ovarian
OVCAR-8 ovarian = system: OVCAR-8 ovarian
PC-3 prostate = system: PC-3 prostate
RPMI-8226 leukemia = system: RPMI-8226 leukemia
RXF 393 renal = system: RXF 393 renal
SF-268 CNS = system: SF-268 CNS
SF-295 CNS = system: SF-295 CNS
SF-539 CNS = system: SF-539 CNS
SK-MEL-2 melanoma = system: SK-MEL-2 melanoma
SK-MEL-28 melanoma = system: SK-MEL-28 melanoma
SK-MEL-5 melanoma = system: SK-MEL-5 melanoma
SK-OV-3 ovarian = system: SK-OV-3 ovarian
SN12C renal = system: SN12C renal
SNB-19 CNS = system: SNB-19 CNS
SNB-75 CNS = system: SNB-75 CNS
SW-620 colon = system: SW-620 colon
T-47D breast = system: T-47D breast
TK-10 renal = system: TK-10 renal
U251 CNS = system: U251 CNS
UACC-257 melanoma = system: UACC-257 melanoma
UACC-62 melanoma = system: UACC-62 melanoma
UO-31 renal = system: UO-31 renal
SR leukemia = system: SR leukemia

CCCCCCCCCCCCCCCCCCNc1nc(=O)n(C2CC(O)C(COP(=O)(O)OCC(COP(=O)(O)OC3C(CO)OC(n4ccc(N)nc4=O)C3O)OCCCCCCCCCCCCCCCCCC)O2)cc1F (centres undefined)
TGI (786-0 renal): 33.3 µM | TGI (A498 renal): > 100 µM | TGI (A549 NSCLC): > 100 µM | TGI (ACHN renal): > 100 µM | TGI (BT-549 breast): > 100 µM | TGI (CAKI-1 renal): > 100 µM | TGI (CCRF-CEM leukemia): > 100 µM | TGI (COLO 205 colon): 37.7 µM | TGI (DU-145 prostate): > 100 µM | TGI (EKVX NSCLC): > 100 µM | TGI (HCC-2998 colon): > 100 µM | TGI (HCT-116 colon): > 100 µM | TGI (HCT-15 colon): > 100 µM | TGI (HL-60(TB) leukemia): > 100 µM | TGI (HOP-62 NSCLC): > 100 µM | TGI (HOP-92 NSCLC): > 100 µM | TGI (HS 578T breast): > 100 µM | TGI (HT29 colon): > 100 µM | TGI (IGROV1 ovarian): > 100 µM | TGI (K-562 leukemia): > 100 µM | TGI (KM12 colon): > 100 µM | TGI (LOX IMVI melanoma): 42.5 µM | TGI (M14 melanoma): > 100 µM | TGI (MALME-3M melanoma): > 100 µM | TGI (MCF7 breast): > 100 µM | TGI (MDA-MB-231 breast): > 100 µM | TGI (MDA-MB-435): > 100 µM | TGI (MDA-N): > 100 µM | TGI (MOLT-4 leukemia): > 100 µM | TGI (NCI-H226 lung): > 100 µM | TGI (NCI-H23 lung): > 100 µM | TGI (NCI-H460 lung): 30.9 µM | TGI (NCI-H522 lung): > 100 µM | TGI (NCI/ADR-RES ovarian): > 100 µM | TGI (OVCAR-3 ovarian): > 100 µM | TGI (OVCAR-4 ovarian): > 100 µM | TGI (OVCAR-5 ovarian): > 100 µM | TGI (OVCAR-8 ovarian): > 100 µM | TGI (PC-3 prostate): 35.4 µM | TGI (RPMI-8226 leukemia): 74.2 µM | TGI (RXF 393 renal): 40.8 µM | TGI (SF-268 CNS): > 100 µM | TGI (SF-295 CNS): > 100 µM | TGI (SF-539 CNS): > 100 µM | TGI (SK-MEL-2 melanoma): > 100 µM | TGI (SK-MEL-28 melanoma): > 100 µM | TGI (SK-MEL-5 melanoma): > 100 µM | TGI (SK-OV-3 ovarian): > 100 µM | TGI (SN12C renal): > 100 µM | TGI (SNB-19 CNS): 56.5 µM | TGI (SNB-75 CNS): > 100 µM | TGI (SW-620 colon): > 100 µM | TGI (T-47D breast): > 100 µM | TGI (TK-10 renal): > 100 µM | TGI (U251 CNS): 34.6 µM | TGI (UACC-257 melanoma): > 100 µM | TGI (UACC-62 melanoma): > 100 µM | TGI (UO-31 renal): > 100 µM

Clc1ccc(Cc2nc3cc(Cl)ccc3o2)cc1
TGI (786-0 renal): > 100 µM | TGI (A549 NSCLC): > 100 µM | TGI (ACHN renal): > 100 µM | TGI (BT-549 breast): > 100 µM | TGI (CAKI-1 renal): > 100 µM | TGI (CCRF-CEM leukemia): 92.3 µM | TGI (COLO 205 colon): 87.4 µM | TGI (DU-145 prostate): > 100 µM | TGI (EKVX NSCLC): 80.9 µM | TGI (HCC-2998 colon): 53.2 µM | TGI (HCT-116 colon): > 100 µM | TGI (HCT-15 colon): > 100 µM | TGI (HL-60(TB) leukemia): > 100 µM | TGI (HOP-62 NSCLC): > 100 µM | TGI (HOP-92 NSCLC): > 100 µM | TGI (HS 578T breast): > 100 µM | TGI (HT29 colon): > 100 µM | TGI (IGROV1 ovarian): > 100 µM | TGI (K-562 leukemia): > 100 µM | TGI (KM12 colon): > 100 µM | TGI (LOX IMVI melanoma): > 100 µM | TGI (M14 melanoma): > 100 µM | TGI (MALME-3M melanoma): > 100 µM | TGI (MCF7 breast): > 100 µM | TGI (MDA-MB-231 breast): > 100 µM | TGI (MDA-MB-435): 95.6 µM | TGI (MDA-N): > 100 µM | TGI (MOLT-4 leukemia): > 100 µM | TGI (NCI-H226 lung): > 100 µM | TGI (NCI-H23 lung): > 100 µM | TGI (NCI-H460 lung): > 100 µM | TGI (NCI-H522 lung): 97 µM | TGI (NCI/ADR-RES ovarian): > 100 µM | TGI (OVCAR-3 ovarian): 70.9 µM | TGI (OVCAR-4 ovarian): > 100 µM | TGI (OVCAR-5 ovarian): > 100 µM | TGI (OVCAR-8 ovarian): > 100 µM | TGI (PC-3 prostate): > 100 µM | TGI (RPMI-8226 leukemia): > 100 µM | TGI (SF-268 CNS): > 100 µM | TGI (SF-295 CNS): 71.8 µM | TGI (SF-539 CNS): > 100 µM | TGI (SK-MEL-2 melanoma): 35.4 µM | TGI (SK-MEL-28 melanoma): > 100 µM | TGI (SK-MEL-5 melanoma): 33.1 µM | TGI (SK-OV-3 ovarian): 68.7 µM | TGI (SN12C renal): > 100 µM | TGI (SNB-19 CNS): > 100 µM | TGI (SR leukemia): > 100 µM | TGI (SW-620 colon): > 100 µM | TGI (T-47D breast): 97.9 µM | TGI (TK-10 renal): > 100 µM | TGI (U251 CNS): 91.2 µM | TGI (UACC-257 melanoma): 92.2 µM | TGI (UACC-62 melanoma): > 100 µM | TGI (UO-31 renal): > 100 µM
